# In US9067949B2, “Benzofuro[3,2-c] pyridines and related analogs as serotonin sub-type 6 (5-HT6) modulators for the treatment of obesity, metabolic syndrome, cognition and schizophrenia” (Albany Molecular Research, Inc., priority 2011, dated 2015):
# pKi: −log10 of the molar value. Read-outs that look alike come from different tables or passages of the source.
# Experiments:
# human 5-HT6 receptor = human 5-HT6 receptor (Homo sapiens (Human), UniProt P50406); assay: 5-HT6 radioligand binding assay (SPA format, [N-methyl-3H]-LSD)
# Experimental: The relative affinities of the various compounds for the 5-HT6 receptor were measured in a radioligand binding assay, using a scintillation proximity assay (SPA) format.
# For binding analysis vs. the human receptor, samples were incubated in 50 mM Tris-HCl, pH 7.5, 5 mM MgCl2, 1 mM EDTA (4% DMSO final) with 10 nM [N-methyl-^3H]-LSD (Perkin Elmer), 2.5 ng of human 5-HT6 receptor membranes (Millipore) and 50 μg SPA beads (PVT-PEI-WGA, GE Healthcare) per well in a final volume of 0.2 mL. […] Binding reactions were performed in PicoPlate96 microtiter plates (Perkin Elmer) by consecutively adding 50 μL of each competing compound or buffer, SPA beads, radioligand and 5-HT6 receptor membranes. After an overnight incubation at room temperature on a Nutator mixer, plates were centrifuged for 15 min at 1,500 rpm, followed by incubation in the dark for 10 min. […] Total binding control contained compound dilution buffer only; nonspecific binding is determined in the presence of 100 μM 5-hydroxytryptamine. Specific binding was determined by subtracting nonspecific binding from total binding.
# All experiments were performed in duplicate using ten concentrations of competing ligand, with clozapine included as a control in every run. IC50 values were determined from specific binding data using XLfit4.1 curve fitting software from IDBS Ltd. The inhibition constant (Ki) was calculated using the Cheng-Prusoff equation: (Ki=IC50/(1+(L/KD)), where L=concentration of radioligand in the assay, and KD=affinity of the radioligand for the receptor.
# [1] = human 5-HT6 receptor membranes, 10 nM [N-methyl-3H]-LSD, Ki by Cheng-Prusoff, hydrochloride, read-out: human 5HT6 Ki
# [2] = human 5-HT6 receptor membranes, 10 nM [N-methyl-3H]-LSD, Ki by Cheng-Prusoff, read-out: human 5HT6 Ki
# human 5-HT6 receptor, sequence (P50406 whole entry): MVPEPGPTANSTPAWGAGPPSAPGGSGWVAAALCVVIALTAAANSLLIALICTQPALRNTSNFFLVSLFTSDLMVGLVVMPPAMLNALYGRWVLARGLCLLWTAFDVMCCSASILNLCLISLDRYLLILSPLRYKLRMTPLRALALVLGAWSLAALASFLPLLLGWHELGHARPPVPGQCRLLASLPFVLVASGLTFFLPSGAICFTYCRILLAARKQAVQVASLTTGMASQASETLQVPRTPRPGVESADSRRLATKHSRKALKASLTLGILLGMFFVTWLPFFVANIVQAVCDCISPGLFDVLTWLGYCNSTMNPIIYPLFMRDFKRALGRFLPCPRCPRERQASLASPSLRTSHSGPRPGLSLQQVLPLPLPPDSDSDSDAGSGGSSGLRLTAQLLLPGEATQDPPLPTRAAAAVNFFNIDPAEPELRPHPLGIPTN
Structure (SMILES),pKi (human 5-HT6 receptor; [1]),melting point,pKi (human 5-HT6 receptor; [2]),pKi (human 5-HT6 receptor)
"CC1NCCc2oc3c(Cl)cc(S(=O)(=O)c4ccccc4)cc3c21.Cl (single isomer, unassigned; (+)) [Example 82a, (+)-6-chloro-1-methyl-8-(phenylsulfonyl)-1,2,3,4-tetrahydrobenzofuro[3,2-c]pyridine hydrochloride]",7.25,295 °C (dec.),,
"O=S(=O)(c1ccccc1)c1cc(Cl)c2oc3c(c2c1)CC(O)CC3 (single isomer, unassigned; (+)) [Example 99, (+)-6-chloro-8-(phenylsulfonyl)-1,2,3,4-tetrahydrodibenzo[b,d]furan-2-ol]",,238 to 242 °C,9.00,
"CC1Cc2oc3c(Cl)cc(S(=O)(=O)c4ccccc4)cc3c2CN1.Cl (single isomer, unassigned; (-)) [Example 83a, (−) 6-chloro-3-methyl-8-(phenylsulfonyl)-1,2,3,4-tetrahydrobenzofuro[3,2-c]pyridine hydrochloride]",7.60,293 °C (dec.),,
"O=S(=O)(c1ccccc1)c1cc(Cl)c2oc3c(c2c1)CC(O)CC3 (single isomer, unassigned; (-)) [Example 98, (−)-6-chloro-8-(phenylsulfonyl)-1,2,3,4-tetrahydrodibenzo[b,d]furan-2-ol]",,236 to 240 °C,7.34,
"CN1CCc2oc3ccc(S(=O)(=O)c4ccccc4)cc3c2C1.Cl [Example 27, 2-Methyl-8-(phenylsulfonyl)-1,2,3,4-tetrahydrobenzofuro[3,2c]pyridine hydrochloride]",,272 °C,8.19,
"Cl.O=S(=O)(c1ccccc1)c1ccc2oc3c(c2c1)CNCC3 [Example 28, 8-(Phenylsulfonyl)-1,2,3,4-tetrahydrobenzofuro[3,2-c]pyridine hydrochloride]",,243 °C,7.72,
"Cl.O=S(=O)(c1cccc(F)c1)c1ccc2oc3c(c2c1)CNCC3 [Example 29, 8-(3-Fluorophenylsulfonyl)-1,2,3,4-tetrahydrobenzofuro[3,2-c]pyridine hydrochloride]",,262 to 272 °C (dec.),7.80,
"Cl.O=S(=O)(c1cccc(Cl)c1)c1ccc2oc3c(c2c1)CNCC3 [Example 30, 8-(3-Chlorophenylsulfonyl)-1,2,3,4-tetrahydrobenzofuro[3,2-c]pyridine hydrochloride]",,245 to 252 °C (dec.),8.21,
"Cl.O=S(=O)(c1ccc(F)cc1)c1ccc2oc3c(c2c1)CNCC3 [Example 31, 8-(4-Fluorophenylsulfonyl)-1,2,3,4-tetrahydrobenzofuro[3,2-c]pyridine hydrochloride]",,270 to 280 °C,7.37,
"Cl.O=S(=O)(c1ccc(Cl)cc1)c1ccc2oc3c(c2c1)CNCC3 [Example 32, 8-(4-Chlorophenylsulfonyl)-1,2,3,4-tetrahydrobenzofuro[3,2-c]pyridine hydrochloride]",,302 to 305 °C,7.42,
"COc1ccc(S(=O)(=O)c2ccc3oc4c(c3c2)CNCC4)cc1.Cl [Example 33, 8-(4-Methoxyphenylsulfonyl)-1,2,3,4-tetrahydrobenzofuro[3,2-c]pyridine hydrochloride]",,270 to 272 °C,7.00,
"Cl.N#Cc1ccc(S(=O)(=O)c2ccc3oc4c(c3c2)CNCC4)cc1 [Example 34, 8-(4-Cyanophenylsulfonyl)-1,2,3,4-tetrahydrobenzofuro[3,2-c]pyridine hydrochloride]",,295 to 301 °C (dec.),,5.88
"Cc1ccc(S(=O)(=O)c2ccc3oc4c(c3c2)CNCC4)cc1.Cl [Example 35, 8-(4-Methylphenylsulfonyl)-1,2,3,4-tetrahydrobenzofuro[3,2-c]pyridine hydrochloride]",,265 to 270 °C,7.42,
"Cl.Nc1ccc(S(=O)(=O)c2ccc3oc4c(c3c2)CNCC4)cc1 [Example 36, 8-(4-Aminophenylsulfonyl)-1,2,3,4-tetrahydrobenzofuro[3,2-c]pyridine hydrochloride]",,305 to 314 °C (dec.),7.40,
"Cl.O=S(=O)(c1cc(F)cc(F)c1)c1ccc2oc3c(c2c1)CNCC3 [Example 37, 8-(3,5-Difluorophenylsulfonyl)-1,2,3,4-tetrahydrobenzofuro[3,2-c]pyridine hydrochloride]",,275 to 281 °C (dec.),6.47,
"Cl.O=S(=O)(c1cc(Cl)cc(Cl)c1)c1ccc2oc3c(c2c1)CNCC3 [Example 38, 8-(3,5-Dichlorophenylsulfonyl)-1,2,3,4-tetrahydrobenzofuro[3,2-c]pyridine hydrochloride]",,312 to 315 °C,7.77,
"Cl.O=S(=O)(c1ccc2oc3c(c2c1)CNCC3)c1cccc2ccccc12 [Example 39, 8-(1-Naphthylsulfonyl)-1,2,3,4-tetrahydrobenzofuro[3,2-c]pyridine hydrochloride]",,200 to 202 °C,8.30,
"Cl.O=S(=O)(c1ccc2ccccc2c1)c1ccc2oc3c(c2c1)CNCC3 [Example 40, 8-(2-Naphthylsulfonyl)-1,2,3,4-tetrahydrobenzofuro[3,2-c]pyridine hydrochloride]",,267 to 270 °C,7.68,
"Cl.O=S(=O)(c1ccc2oc3c(c2c1)CNCC3)n1ccc2ccccc21 [Example 41, 8-(1H-Indol-1-ylsulfonyl)-1,2,3,4-tetrahydrobenzofuro[3,2-c]pyridine hydrochloride]",,283 to 286 °C,9.24,
"Cl.O=S(=O)(c1ccc2oc3c(c2c1)CNCC3)n1ccc2ccc(F)cc21 [Example 42, 8-(6-fluoro-1H-indol-1-ylsulfonyl)-1,2,3,4-tetrahydrobenzofuro[3,2-c]pyridine hydrochloride]",,199 to 203 °C,8.82,
Cn1cc(S(=O)(=O)c2cc(C#N)c3oc4c(c3c2)CNCC4)c2ccccc21 [Example 211],,,9.40,
N#Cc1cc(S(=O)(=O)c2ccc(Cl)cc2)cc2c3c(oc12)CCNC3 [Example 212],,,8.06,
N#Cc1cc(S(=O)(=O)c2cccc(Cl)c2)cc2c3c(oc12)CCNC3 [Example 213],,,8.72,
O=S(=O)(c1ccccc1)c1cc(OC(F)(F)F)c2oc3c(c2c1)CNCC3 [Example 214],,,9.06,

Structure (SMILES),pKi (human 5-HT6 receptor; [1]),melting point,pKi (human 5-HT6 receptor; [2]),pKi (human 5-HT6 receptor)
CCOc1cc(S(=O)(=O)c2ccccc2)cc2c3c(oc12)CCNC3 [Example 215],,,9.96,
O=S(=O)(c1ccccc1)c1cc(OC(F)F)c2oc3c(c2c1)CNCC3 [Example 216],,,9.48,
O=S(=O)(c1ccccc1)c1cc(OCCO)c2oc3c(c2c1)CNCC3 [Example 217],,,8.80,
CC(C)(O)COc1cc(S(=O)(=O)c2ccccc2)cc2c3c(oc12)CCNC3 [Example 218],,,6.29,
CC(C)(O)c1cc(S(=O)(=O)c2ccccc2)cc2c3c(oc12)CCNC3 [Example 220],,,7.26,
CC(O)c1cc(S(=O)(=O)c2ccccc2)cc2c3c(oc12)CCNC3 (centres unmarked) [Example 221],,,8.24,
NC(=O)c1cc(S(=O)(=O)c2ccccc2)cc2c3c(oc12)CCNC3 [Example 222],,,6.51,
CN(C)C(=O)c1cc(S(=O)(=O)c2ccccc2)cc2c3c(oc12)CCNC3 [Example 223],,,5.95,
O=S(=O)(c1ccccc1)c1cc(-c2cc[nH]n2)c2oc3c(c2c1)CNCC3 [Example 224],,,8.35,
Cn1cc(-c2cc(S(=O)(=O)c3ccccc3)cc3c4c(oc23)CCNC4)cn1 [Example 225],,,7.96,
O=S(=O)(c1ccccc1)c1cc(-n2cncn2)c2oc3c(c2c1)CNCC3 [Example 226],,,6.97,
Cn1ccc(-c2cc(S(=O)(=O)c3ccccc3)cc3c4c(oc23)CCNC4)n1 [Example 227],,,7.22,
O=S(=O)(c1ccccc1)c1cc(N2CCOCC2)c2oc3c(c2c1)CNCC3 [Example 228],,,7.33,
O=S(=O)(c1ccccc1)c1cc(Cn2ccnc2)c2oc3c(c2c1)CNCC3 [Example 229],,,7.19,
COc1cc(Sc2ccccc2)cc2c3c(oc12)CCNC3 [Example 230],,,8.72,
[O-][S+](c1ccccc1)c1cc(Cl)c2oc3c(c2c1)CNCC3 (centres unmarked) [Example 231],,,8.51,
[O-][S+](c1ccccc1)c1cc(Cl)c2oc3c(c2c1)CNCC3 (centres unmarked) [Example 232],,,7.54,
COc1cc([S+]([O-])c2ccccc2)cc2c3c(oc12)CCNC3 (centres unmarked) [Example 233],,,8.62,
COc1cc([S+]([O-])c2ccccc2)cc2c3c(oc12)CCNC3 (centres unmarked) [Example 234],,,8.13,
COc1cc([S+]([O-])c2ccccc2)cc2c3c(oc12)CCNC3 (centres unmarked) [Example 235],,,8.96,
Clc1cc(Cc2ccccc2)cc2c3c(oc12)CCNC3 [Example 236],,,7.62,
COc1cc(Oc2ccccc2)cc2c3c(oc12)CCNC3 [Example 237],,,6.19,
COc1cc(S(=O)(=O)c2ccccc2)cc2c3c(oc12)CCC(O)C3 (centres unmarked) [Example 238],,,9.23,
CC(=O)N1CCc2oc3c(Cl)cc(S(=O)(=O)c4ccccc4)cc3c2C1 [Example 239],,,8.02,
